#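 Five concentrations, 48 hours, 96-well plates. Here, GI50 denotes the concentration required for 50% inhibition of growth. The concentration for full growth arrest is given as TGI.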
# Tests used:
# Experiment in all cases: DTP human tumour cell line panel, 48 h
# KM12 colon = test system: KM12 colon
# M14 melanoma = test system: M14 melanoma
# U251 CNS = test system: U251 CNS
# 786-0 renal = test system: 786-0 renal
# RPMI-8226 leukemia = test system: RPMI-8226 leukemia
# OVCAR-8 ovarian = test system: OVCAR-8 ovarian
# OVCAR-4 ovarian = test system: OVCAR-4 ovarian
# MDA-MB-231 breast = test system: MDA-MB-231 breast
# SNB-19 CNS = test system: SNB-19 CNS
# MALME-3M melanoma = test system: MALME-3M melanoma
# TK-10 renal = test system: TK-10 renal
# SF-295 CNS = test system: SF-295 CNS
# CCRF-CEM leukemia = test system: CCRF-CEM leukemia
# SW-620 colon = test system: SW-620 colon
# LOX IMVI melanoma = test system: LOX IMVI melanoma
# SF-268 CNS = test system: SF-268 CNS
# UACC-62 melanoma = test system: UACC-62 melanoma
# HCT-15 colon = test system: HCT-15 colon
# UO-31 renal = test system: UO-31 renal
# A549 NSCLC = test system: A549 NSCLC
# SK-OV-3 ovarian = test system: SK-OV-3 ovarian
# SR leukemia = test system: SR leukemia
# SK-MEL-5 melanoma = test system: SK-MEL-5 melanoma
# NCI-H460 lung = test system: NCI-H460 lung
# MCF7 breast = test system: MCF7 breast
# PC-3 prostate = test system: PC-3 prostate
# MDA-MB-468 breast = test system: MDA-MB-468 breast
# OVCAR-3 ovarian = test system: OVCAR-3 ovarian
# HS 578T breast = test system: HS 578T breast
# HL-60(TB) leukemia = test system: HL-60(TB) leukemia
# MOLT-4 leukemia = test system: MOLT-4 leukemia
# COLO 205 colon = test system: COLO 205 colon
# HOP-62 NSCLC = test system: HOP-62 NSCLC
# SNB-75 CNS = test system: SNB-75 CNS
# EKVX NSCLC = test system: EKVX NSCLC
# HT29 colon = test system: HT29 colon
# A498 renal = test system: A498 renal
# HOP-92 NSCLC = test system: HOP-92 NSCLC
# NCI-H23 lung = test system: NCI-H23 lung
# NCI/ADR-RES ovarian = test system: NCI/ADR-RES ovarian
# UACC-257 melanoma = test system: UACC-257 melanoma
# SF-539 CNS = test system: SF-539 CNS
# K-562 leukemia = test system: K-562 leukemia
# T-47D breast = test system: T-47D breast
# DU-145 prostate = test system: DU-145 prostate
# OVCAR-5 ovarian = test system: OVCAR-5 ovarian
# ACHN renal = test system: ACHN renal
# SN12C renal = test system: SN12C renal
# SK-MEL-2 melanoma = test system: SK-MEL-2 melanoma
# SK-MEL-28 melanoma = test system: SK-MEL-28 melanoma
# MDA-MB-435 = test system: MDA-MB-435
# CAKI-1 renal = test system: CAKI-1 renal
# BT-549 breast = test system: BT-549 breast
# NCI-H226 lung = test system: NCI-H226 lung
# RXF 393 renal = test system: RXF 393 renal
# NCI-H522 lung = test system: NCI-H522 lung
# HCT-116 colon = test system: HCT-116 colon
# IGROV1 ovarian = test system: IGROV1 ovarian
# HCC-2998 colon = test system: HCC-2998 colon
structure (smiles),measurement,setting,value
CCN1C(=O)N(CC)C2NNC(Sc3c(C(=O)O)c4ccccc4n(CCC(C)C)c3=O)=NC21 (stereo not drawn),GI50,KM12 colon,4.12 µM
same,TGI,KM12 colon,53.5 µM
same,GI50,M14 melanoma,8.47 µM
same,TGI,M14 melanoma,> 100 µM
same,GI50,U251 CNS,4.33 µM
same,TGI,U251 CNS,36.9 µM
same,GI50,786-0 renal,14.5 µM
same,TGI,786-0 renal,62.8 µM
same,GI50,RPMI-8226 leukemia,4.61 µM
same,TGI,RPMI-8226 leukemia,> 100 µM
same,GI50,OVCAR-8 ovarian,5.54 µM
same,TGI,OVCAR-8 ovarian,51.7 µM
same,GI50,OVCAR-4 ovarian,17.9 µM
same,TGI,OVCAR-4 ovarian,> 100 µM
same,GI50,MDA-MB-231 breast,3.69 µM
same,TGI,MDA-MB-231 breast,15.7 µM
same,GI50,SNB-19 CNS,4.56 µM
same,TGI,SNB-19 CNS,25.1 µM
same,GI50,MALME-3M melanoma,11.2 µM
same,TGI,MALME-3M melanoma,28.3 µM
same,GI50,TK-10 renal,17.5 µM
same,TGI,TK-10 renal,63.8 µM
same,GI50,SF-295 CNS,3.3 µM
same,TGI,SF-295 CNS,13.2 µM
same,GI50,CCRF-CEM leukemia,4.62 µM
same,TGI,CCRF-CEM leukemia,> 100 µM
same,GI50,SW-620 colon,6.5 µM
same,TGI,SW-620 colon,31 µM
same,GI50,LOX IMVI melanoma,5.11 µM
same,TGI,LOX IMVI melanoma,18.5 µM
same,GI50,SF-268 CNS,10.4 µM
same,TGI,SF-268 CNS,> 100 µM
same,GI50,UACC-62 melanoma,4.11 µM
same,TGI,UACC-62 melanoma,19.8 µM
same,GI50,HCT-15 colon,2.75 µM
same,TGI,HCT-15 colon,13.7 µM
same,GI50,UO-31 renal,4.07 µM
same,TGI,UO-31 renal,22.5 µM
same,GI50,A549 NSCLC,6.07 µM
same,TGI,A549 NSCLC,24.2 µM
same,GI50,SK-OV-3 ovarian,7.58 µM
same,TGI,SK-OV-3 ovarian,69.1 µM
same,GI50,SR leukemia,22 µM
same,TGI,SR leukemia,> 100 µM
same,GI50,SK-MEL-5 melanoma,4.37 µM
same,TGI,SK-MEL-5 melanoma,16.4 µM
same,GI50,NCI-H460 lung,3.43 µM
same,TGI,NCI-H460 lung,13.3 µM
same,GI50,MCF7 breast,0.878 µM
same,TGI,MCF7 breast,15.1 µM
same,GI50,PC-3 prostate,6.19 µM
same,TGI,PC-3 prostate,> 100 µM
same,GI50,MDA-MB-468 breast,0.386 µM
same,TGI,MDA-MB-468 breast,3.33 µM
same,GI50,OVCAR-3 ovarian,5 µM
same,TGI,OVCAR-3 ovarian,21.3 µM
same,GI50,HS 578T breast,3.37 µM
same,TGI,HS 578T breast,31 µM
same,GI50,HL-60(TB) leukemia,3.12 µM
same,TGI,HL-60(TB) leukemia,34.1 µM
same,GI50,MOLT-4 leukemia,4.79 µM
same,TGI,MOLT-4 leukemia,> 100 µM
same,GI50,COLO 205 colon,3.65 µM
same,TGI,COLO 205 colon,11.6 µM
same,GI50,HOP-62 NSCLC,6.68 µM
same,TGI,HOP-62 NSCLC,43 µM
same,GI50,SNB-75 CNS,2.24 µM
same,TGI,SNB-75 CNS,9.19 µM
same,GI50,EKVX NSCLC,3.5 µM
same,TGI,EKVX NSCLC,17.7 µM
same,GI50,HT29 colon,3.33 µM
same,TGI,HT29 colon,13.3 µM
same,GI50,A498 renal,19.6 µM
same,TGI,A498 renal,54.3 µM
same,GI50,HOP-92 NSCLC,16.5 µM
same,TGI,HOP-92 NSCLC,47.4 µM
same,GI50,NCI-H23 lung,4.34 µM
same,TGI,NCI-H23 lung,16.6 µM
same,GI50,NCI/ADR-RES ovarian,2.25 µM
same,TGI,NCI/ADR-RES ovarian,5.8 µM
same,GI50,UACC-257 melanoma,19.6 µM
same,TGI,UACC-257 melanoma,71.5 µM
same,GI50,SF-539 CNS,2.11 µM
same,TGI,SF-539 CNS,5.63 µM
same,GI50,K-562 leukemia,3.69 µM
same,TGI,K-562 leukemia,> 100 µM
same,GI50,T-47D breast,20.5 µM
same,TGI,T-47D breast,> 100 µM
same,GI50,DU-145 prostate,5.64 µM
same,TGI,DU-145 prostate,65.7 µM
same,GI50,OVCAR-5 ovarian,3.06 µM
same,TGI,OVCAR-5 ovarian,17.5 µM
same,GI50,ACHN renal,5.75 µM
same,TGI,ACHN renal,19.4 µM
same,GI50,SN12C renal,4.09 µM
same,TGI,SN12C renal,18.2 µM
same,GI50,SK-MEL-2 melanoma,9.35 µM
same,TGI,SK-MEL-2 melanoma,31.2 µM
same,GI50,SK-MEL-28 melanoma,9.69 µM
same,TGI,SK-MEL-28 melanoma,31.4 µM
same,GI50,MDA-MB-435,2.13 µM
same,TGI,MDA-MB-435,5.5 µM
same,GI50,CAKI-1 renal,5.21 µM
same,TGI,CAKI-1 renal,19.8 µM
same,GI50,BT-549 breast,35.8 µM
same,TGI,BT-549 breast,91.4 µM
same,GI50,NCI-H226 lung,3.87 µM
same,TGI,NCI-H226 lung,21 µM
same,GI50,RXF 393 renal,2.16 µM
same,TGI,RXF 393 renal,9.31 µM
same,GI50,NCI-H522 lung,2.52 µM
same,TGI,NCI-H522 lung,8.42 µM
same,GI50,HCT-116 colon,4.12 µM
same,TGI,HCT-116 colon,> 100 µM
same,GI50,IGROV1 ovarian,3.06 µM
same,TGI,IGROV1 ovarian,18.1 µM
same,GI50,HCC-2998 colon,2.41 µM
same,TGI,HCC-2998 colon,7.91 µM

# — PubChem BioAssay (NCI)
